Data taken from patent US9497967B2, “Synergistic pesticidal compositions and related methods” (Dow AgroSciences LLC, priority 2013, dated 2016).

Assays:
Assay type in all cases: in vivo
Conditions in all cases: alone
[1] = system: Western plant bug, Lygus hesperus; experiment: Treated bean piece bioassay against third-instar nymphs of Western plant bug
From the text: (§1) The method described in Colby S. R., “Calculating Synergistic and Antagonistic Responses of Herbicide Combinations,” Weeds, 1967, 15, 20-22 was used to determine an existence of synergic effect between the chloride channel activator compound and the pesticide (I), (II), or any agriculturally acceptable salt thereof in the formulated pesticidal composition. In this method, the percent insect control of the formulated pesticidal composition as observed in the study was compared to the “expected” percent control (E) as calculated by equation (1) (hereinafter “Colby's equation”) below: […]
The active compounds were formulated in a 10% acetone solution with 0.025% non-ionic surfactant, TWEEN® 20. Bioassays were performed for each different active solution. Bean pieces (about one inch-long) were used for the tests. Four bean pieces were placed in each tested active solution and left there for 10 minutes. Bean pieces were taken out of the active solution, and each piece was placed in a well in a 32-well tray and allowed to air dry. Three third-instar nymphs of Western plant bug, Lygus hesperus, were infested into each well. The percent control of the pesticidal composition against Lygus hesperus bug was determined as the “Observed” action, and compared to those obtained by using about 0.04 weight % of compound I, and using about 0.20 weight % of emamectin benzoate alone. The “Colby's Expected Action” was calculated using Colby's equation as discussed previously.

[2] = system: South American brown stink bug, Euschistus heros; experiment: Treated bean piece bioassay against third-instar nymphs of South American brown stink bug
From the text: as §1
The active compounds were formulated in a 10% acetone solution with 0.025% non-ionic surfactant, TWEEN® 20. Bioassays were performed for each different active solution. Bean pieces (about one inch-long) were used for the tests. Four bean pieces were placed in each tested active solution and left there for 10 minutes. […]
The percent control of the pesticidal composition against South American brown stink bug, Euschistus heros, was determined as the “Observed” action, and compared to those obtained by using about 0.04 weight % of compound I, and using about 0.000156 weight % of emamectin benzoate alone. The “Colby's Expected Action” was calculated using Colby's equation as discussed previously.

[3] = system: diamondback moth, Plutella xylostella; experiment: Cabbage plant track-sprayer bioassay against second instar diamondback moth
From the text: as §1
Bioassays were performed for different active compounds. Cabbage plants with about two to three new-growth-true leaf stage were treated with different active compounds using a track sprayer application at 400 L/Ha spray volume. Three second instar diamondback moth, Plutella xylostella, were infested onto each leaf disc. The percent control of the pesticidal composition against diamondback moth, Plutella xylostella, was determined as the “Observed” action, and compared to those obtained by using about 0.0025 weight % of compound II, and using about 0.000078 weight % of emamectin benzoate alone. The “Colby's Expected Action” was calculated using Colby's equation as discussed previously.
Bioassays were performed wherein different active compounds were tested against diamondback moth, Plutella xylostella, using the procedure described in example 5A.

Compound	% Control Three Days After Treatment ([1]; dose rate 0.20 weight %) [%]	% Control Three Days After Treatment ([1]; dose rate 0.20 weight %, listed as emamectin benzoate)	% Control Four Days After Treatment ([2]; dose rate 0.000156 weight %) [%]	% Control Three Days After Treatment ([3]; dose rate 0.000039 weight %) [%]	% Control Three Days After Treatment ([3]; dose rate 0.000078 weight %) [%]	% Control Three Days After Treatment ([1]; dose rate 0.04 weight %) [%]	% Control Three Days After Treatment ([1]; dose rate 0.04 weight %, listed as compound I)	% Control Four Days After Treatment ([2]; dose rate 0.04 weight %) [%]	% Control Three Days After Treatment ([3]; dose rate 0.000625 weight %)
emamectin benzoate	0	no control	25	73.91	91.3	–	–	–	–
CCN(C(=O)CCSCCC(F)(F)F)c1cn(-c2cccnc2)nc1Cl [Compound I, N-(3-chloro-1-(pyridin-3-yl)-1H-pyrazol-4-yl)-N-ethyl-3-((3,3,3-trifluoropropyl)thio)propanamide]	–	–	–	–	–	0	no control	8	no control
